Data from the NIST ThermoML archive (doi:10.1016/j.tca.2016.03.026).
± gives the expanded uncertainty stated by the source.

How the values were obtained:
[1] = xn = mol fraction of the nth substance listed; conditions: 100 kPa, Liquid, x2 = 0; for speed of sound: Frequency=3 MHz, Sing-around technique in a fixed-path interferometer; for mass density: Vibrating tube method
[2] = refractive index (Na D-line) (dimensionless); xn = mol fraction of the nth substance listed; conditions: 100 kPa, Liquid, Standard Abbe refractometry, x2 = 0
[3] = 100 kPa, Liquid; for speed of sound: Frequency=3 MHz, Sing-around technique in a fixed-path interferometer; for mass density: Vibrating tube method
[4] = refractive index (Na D-line) (dimensionless); conditions: 100 kPa, Liquid, Standard Abbe refractometry

| Compound | speed of sound ([1]; 298.15 K) | mass density ([1]; 298.15 K) | speed of sound ([1]; 308.15 K) | mass density ([1]; 308.15 K) | speed of sound ([1]; 318.15 K) | mass density ([1]; 318.15 K) | refractive index ([2]; 298.15 K) | refractive index ([2]; 308.15 K) | refractive index ([2]; 318.15 K) | speed of sound ([3]; 298.15 K) | mass density ([3]; 298.15 K) | speed of sound ([3]; 308.15 K) | mass density ([3]; 308.15 K) | speed of sound ([3]; 318.15 K) | mass density ([3]; 318.15 K) | refractive index ([4]; 298.15 K) | refractive index ([4]; 308.15 K) | refractive index ([4]; 318.15 K) |
| --- | --- | --- | --- | --- | --- | --- | --- | --- | --- | --- | --- | --- | --- | --- | --- | --- | --- | --- |
| CC(C)(C)O [2-methylpropan-2-ol] | – | – | – | – | – | – | – | – | – | 1121.4 ± 1.3 m/s | 780.72 ± 0.23 kg/m3 | 1082 ± 1.3 m/s | 770.21 ± 0.23 kg/m3 | 1038.2 ± 1.3 m/s | 759.5 ± 0.23 kg/m3 | 1.38488 ± 0.0016 | 1.37985 ± 0.0016 | 1.37402 ± 0.0016 |
| CCCCCCCC[n+]1ccn(C)c1.F[B-](F)(F)F [1-methyl-3-octylimidazolium tetrafluoroborate] | – | – | – | – | – | – | – | – | – | 1485.1 ± 2.3 m/s | 1105.02 ± 1.1 kg/m3 | 1458.5 ± 2.3 m/s | 1098.32 ± 1 kg/m3 | 1433.2 ± 2.3 m/s | 1091.54 ± 1 kg/m3 | 1.43253 ± 0.0017 | 1.42984 ± 0.0017 | 1.42715 ± 0.0017 |
| CC(C)(C)O [2-methylpropan-2-ol] + CCCCCCCC[n+]1ccn(C)c1.F[B-](F)(F)F | 1121.4 ± 1.3 m/s | 780.72 ± 0.23 kg/m3 | 1082 ± 1.3 m/s | 770.21 ± 0.23 kg/m3 | 1038.2 ± 1.3 m/s | 759.5 ± 0.23 kg/m3 | 1.38488 ± 0.0016 | 1.37985 ± 0.0016 | 1.37402 ± 0.0016 | – | – | – | – | – | – | – | – | – |
| CC(C)CO [2-methyl-1-propanol] + CCCCCCCC[n+]1ccn(C)c1.F[B-](F)(F)F | 1189 ± 1.4 m/s | 797.82 ± 0.22 kg/m3 | 1155.9 ± 1.3 m/s | 790.63 ± 0.23 kg/m3 | 1118.6 ± 1.3 m/s | 781.98 ± 0.23 kg/m3 | 1.39408 ± 0.0016 | 1.38925 ± 0.0016 | 1.38444 ± 0.0016 | – | – | – | – | – | – | – | – | – |
| CC(C)CO [2-methyl-1-propanol] | – | – | – | – | – | – | – | – | – | 1189 ± 1.4 m/s | 797.82 ± 0.22 kg/m3 | 1155.9 ± 1.3 m/s | 790.63 ± 0.23 kg/m3 | 1118.6 ± 1.3 m/s | 781.98 ± 0.23 kg/m3 | 1.39408 ± 0.0016 | 1.38925 ± 0.0016 | 1.38444 ± 0.0016 |

Next, values leading:

| speed of sound ([1]; 298.15 K) | mass density ([1]; 298.15 K) | speed of sound ([1]; 308.15 K) | mass density ([1]; 308.15 K) | speed of sound ([1]; 318.15 K) | mass density ([1]; 318.15 K) | refractive index ([2]; 298.15 K) | refractive index ([2]; 308.15 K) | refractive index ([2]; 318.15 K) | speed of sound ([3]; 298.15 K) | mass density ([3]; 298.15 K) | speed of sound ([3]; 308.15 K) | mass density ([3]; 308.15 K) | speed of sound ([3]; 318.15 K) | mass density ([3]; 318.15 K) | refractive index ([4]; 298.15 K) | refractive index ([4]; 308.15 K) | refractive index ([4]; 318.15 K) | Compound |
| --- | --- | --- | --- | --- | --- | --- | --- | --- | --- | --- | --- | --- | --- | --- | --- | --- | --- | --- |
| 1242.4 ± 1.2 m/s | 805.76 ± 0.2 kg/m3 | 1207.5 ± 1.2 m/s | 798.05 ± 0.2 kg/m3 | 1171.5 ± 1.2 m/s | 790.21 ± 0.2 kg/m3 | 1.39728 ± 0.0016 | 1.39324 ± 0.0016 | 1.38911 ± 0.0016 | – | – | – | – | – | – | – | – | – | CCCCO [butan-1-ol] + CCCCCCCC[n+]1ccn(C)c1.F[B-](F)(F)F |
| – | – | – | – | – | – | – | – | – | 1242.4 ± 1.2 m/s | 805.76 ± 0.2 kg/m3 | 1207.5 ± 1.2 m/s | 798.05 ± 0.2 kg/m3 | 1171.5 ± 1.2 m/s | 790.21 ± 0.2 kg/m3 | 1.39728 ± 0.0016 | 1.39324 ± 0.0016 | 1.38911 ± 0.0016 | CCCCO [butan-1-ol] |
